Measurements taken from patent publication US6207399A, “Methods of determining endogenous thrombin potential (ETP) and thrombin substrates for use in said methods” (Hemker; Hendrik Coenraad, priority 1995, dated 2001).
Like-named read-outs stand apart in the source and are kept apart here. Square brackets hold non-standard residues; d marks the D form. Peptide text beside a SMILES is read from it. * marks the point of attachment. pNA = O=[N+]([O-])c1ccc(N*)cc1; Nle = CCCC[CH](N)C(=O)O; Pip = O=C(O)[CH]1CCCCN1; Boc = CC(C)(C)OC(=O)*; Bz = O=C(c1ccccc1)*; CH2Cl = ClC*

Legend:
[1] = Water solubility of the substrates; assay type: physicochemical
[2] = tested on: thrombin; conditions: Svendsen et al; cited from earlier work
[3] = tested on: protein C; conditions: Serbio patent EP-B-0 280 610; cited from earlier work
[4] = tested on: Factor Xa; conditions: Serbio patent EP-B-0 280 610; cited from earlier work
[5] = target: T1, factor Xa (Homo sapiens, UniProt P00742); test: Kinetic parameters of hydrolysis of the substrates by factor Xa in buffer A at 37° C. (Example 4, Table 3); assay type: biochemical; conditions: buffer A, 37° C., 50 nM factor Xa
T1 construct: human factor Xa samples; gift of Dr. T. Lindhout (University of Limburg, Maastricht)
T1 sequence (P00742 41-179 limits assumed): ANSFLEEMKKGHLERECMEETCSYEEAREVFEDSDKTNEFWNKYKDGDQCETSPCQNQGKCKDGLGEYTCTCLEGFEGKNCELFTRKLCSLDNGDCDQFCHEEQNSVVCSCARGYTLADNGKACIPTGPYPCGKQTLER
T1 sequence (P00742 235-488 limits assumed): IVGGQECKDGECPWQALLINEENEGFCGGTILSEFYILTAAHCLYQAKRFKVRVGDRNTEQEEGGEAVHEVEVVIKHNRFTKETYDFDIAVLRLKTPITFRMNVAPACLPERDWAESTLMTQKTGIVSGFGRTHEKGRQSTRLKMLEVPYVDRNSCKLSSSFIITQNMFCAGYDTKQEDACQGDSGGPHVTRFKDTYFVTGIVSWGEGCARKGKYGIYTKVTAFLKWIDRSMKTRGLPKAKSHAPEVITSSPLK
Description: (§1) Kinetic parameters: The hydrolysis experiments were run in buffer A at 37° C. The liberation of p-nitroaniline was monitored at 405 nm in a dual wavelength (405-546 nm) spectrophotometer made in our workshop, using a personal computer for data recording. In a polystyrene microcuvette (total volume 500 μL), buffer A and substrate solution were added to obtain a final substrate concentration between 200 to 2000 μM. After 5 min of incubation at 37° C., enzyme solution was added to achieve a final concentration between 0.5 to 50 nM. The measurement was carried out at 37° C. in a thermostated cuvette-holder. The Michaelis constant (Km) and the catalytic constant (kcat) were obtained by measuring the initial reaction velocities at different substrate concentrations. The data obtained were fitted by linear regression on the Michaelis-Menten equation.
(§2) Kinetic parameters: The Km and kcat values for each substrate were determined at an enzyme concentration of 0.5-50 nM (thrombin) and 50 nM factor Xa. From the initial reaction velocities, measured for at least six substrate concentrations between 200 and 2000 μM, the Km and kcat values were calculated by linear regression on the Michaelis-Menten curve. Table 3 gives an overview of the kinetic parameters of the different substrates hydrolyzed by thrombin and by factor Xa in buffer A.

[6] = tested on: thrombin; conditions: Serbio patent EP-B-0 280 610; cited from earlier work
[7] = target: T2, human α-thrombin (Homo sapiens, UniProt P00734); test: Kinetics of hydrolysis of substrates by human α-thrombin in buffer A at 37° C. (Example 2, Table 1); assay type: biochemical
T2 construct: Pure human α-thrombin; gift of Dr. T. Lindhout (University of Limburg, Maastricht)
Description: as §1, with “between 1” for “between 200”, “to 100” for “to 50”, “measuring” for “measuring the”
(§3) Kinetic parameters: In a preliminary experiment, the substrate was hydrolyzed under the following conditions: enzyme concentration: 10 to 20 nM, substrate concentration: 200 μM in buffer A to get an impression of the initial velocity. […] The results are given in table 1 and 2 for thrombin and factor Xa respectively. The Km and kcat for each substrate were determined from the initial velocities measured for at least six substrate concentrations in the concentration range as given. The enzyme concentration used gives a good signal to noise ratio. The data given are obtained from one or two experiments. The data from table 1 and 2 were only used as the first selection criterion to get a rough impression of the hydrolysis behaviour. Notwithstanding the preliminary character of the measurement it was helpful in the design of the substrates of our interest.

[8] = tested on: plasmin; conditions: Serbio patent EP-B-0 280 610; cited from earlier work
[9] = target: T3, thrombin (Homo sapiens, UniProt P00734); test: Kinetic parameters of hydrolysis of the substrates by thrombin in buffer A at 37° C. (Example 4, Table 3); assay type: biochemical; design: Pure human α-thrombin; gift of Dr. T. Lindhout (University of Limburg, Maastricht); conditions: buffer A, 37° C.
Description: as §1, §2

[10] = target: T1, factor Xa; test: Kinetics of hydrolysis of substrates by human factor Xa in buffer A at 37° C. (Example 2, Table 2); assay type: biochemical
Description: as §1, with “between 1” for “between 200”, “to 100” for “to 50”, “measuring” for “measuring the”
as §3

[11] = target: T3, thrombin; conditions: Angliker et al; cited from earlier work
[12] = target: T2, human α-thrombin; conditions: from Hemker H.C. et al. (1993); cited from earlier work
[13] = target: T1, factor Xa; conditions: entry marked ^a (Hemker et al. 1993, footnote of Table 1); cited from earlier work
[14] = target: T1, factor Xa; conditions: SQ68 reference, same values as Table 2 entry 17; cited from earlier work
[15] = target: T3, thrombin; design: Pure human α-thrombin; gift of Dr. T. Lindhout (University of Limburg, Maastricht); conditions: SQ68 reference, same values as Table 1 entry 17 (from Hemker et al. 1993); cited from earlier work

Structure (SMILES): CCCC[C@H](NC(=O)[C@@H]1CCCN1C(=O)[C@H](N)Cc1ccccc1)C(=O)Nc1ccc([N+](=O)[O-])cc1.Cl [Substrate 7] (H-[dF]-Pro-[Nle]-pNA)
- water solubility [1]: restricted water solubility

Structure (SMILES): CC(C)[C@H](NC(=O)[C@H](Cc1ccccc1)NC(=O)c1ccccc1)C(=O)N[C@@H](CCCNC(=N)N)C(=O)Nc1ccc([N+](=O)[O-])cc1 [Benzoyl-Phe-Val-Arg-p-nitroanilide] (Bz-Phe-Val-Arg-pNA)
- kcat /Km [2]: 90×10^-7 [(NIH units/liter)s]^-1

Structure (SMILES): COC(=O)CC(=O)N[C@H](C(=O)N[C@@H](CCCNC(=N)N)C(=O)Nc1ccc([N+](=O)[O-])cc1)C(C)C.Cl [MZ-Val-Arg-pNA.HCl]
- rate of hydrolysis for protein C [3]: 0.12
- rate of hydrolysis for Factor Xa [4]: 0.03
- Factor Xa kcat [5]: 10.1 s⁻¹
- Factor Xa kcat /Km [5]: 2470 M/s
- Km [5]: 4080 µM
- rate of hydrolysis for thrombin [6]: 0.21
- Km [7]: 1010 µM
- kcat [7]: 14.4 s⁻¹
- kcat /Km [7]: 14300 M/s
- rate of hydrolysis for plasmin [8]: 0.08
- Km [9]: 1010 µM
- Thrombin kcat [9]: 14.4 s⁻¹
- Thrombin kcat /Km [9]: 14300 M/s
- Km [10]: 2570 µM
- kcat [10]: 6.42 s⁻¹
- kcat /Km [10]: 2500 M/s

Structure (SMILES): COC(=O)CC(=O)N1C[C@H](O)C[C@H]1C(=O)N[C@@H](CCCNC(=N)N)C(=O)Nc1ccc([N+](=O)[O-])cc1 [CH3 O--CO--CH2 --CO-L-4Hyp-L-Arg-pNA]
- rate of hydrolysis for protein C [3]: 0.88
- rate of hydrolysis for Factor Xa [4]: 0.34
- rate of hydrolysis for thrombin [6]: 0.61
- rate of hydrolysis for plasmin [8]: 1.12

Structure (SMILES): Cl.N=C(N)NCCC[C@H](NC(=O)CNS(=O)(=O)c1ccc2ccccc2c1)C(=O)Nc1ccc([N+](=O)[O-])cc1 [Substrate 25]
- water solubility [1]: restricted water solubility

Structure (SMILES): CC(C)[C@H](NC(=O)c1ccccc1)C(=O)N[C@@H](CCCNC(=N)N)C(=O)Nc1ccc([N+](=O)[O-])cc1 [benzoyl-Val-Arg-p-nitroanilide] (Bz-Val-Arg-pNA)
- factor by which poorer substrate for thrombin than Benzoyl-Phe-Val-Arg-p-nitroanilide [2]: ≥ 100

Structure (SMILES): CC(C)[C@H](NC(=O)[C@@H](N)Cc1ccccc1)C(=O)N[C@@H](CCCNC(=N)N)C(=O)Nc1ccc([N+](=O)[O-])cc1 [H-Phe-Val-Arg-p-nitroanilide] (H-Phe-Val-Arg-pNA)
- factor by which poorer substrate for thrombin than Benzoyl-Phe-Val-Arg-p-nitroanilide [2]: ≥ 100

Structure (SMILES): CC(C)[C@H](NC(=O)CN)C(=O)N[C@@H](CCCNC(=N)N)C(=O)Nc1ccc([N+](=O)[O-])cc1.Cl.Cl [2HCl.H-Gly-Val-Arg-pNA] (H-Gly-Val-Arg-pNA)
- Factor Xa kcat [5]: 2.84 s⁻¹
- Factor Xa kcat /Km [5]: 649 M/s
- Km [5]: 4380 µM
- Km [7]: 1640 µM
- kcat [7]: 16.54 s⁻¹
- kcat /Km [7]: 10100 M/s
- Km [9]: 3230 µM
- Thrombin kcat [9]: 25.4 s⁻¹
- Thrombin kcat /Km [9]: 7880 M/s
- Km [10]: 2680 µM
- kcat [10]: 3.51 s⁻¹
- kcat /Km [10]: 1310 M/s

Structure (SMILES): CCCCC(NC(=O)C1CCCCN1C(=O)C(N)Cc1ccccc1)C(=O)Nc1ccc([N+](=O)[O-])cc1.Cl (centres unmarked) [Substrate 6] (H-Phe-[Pip]-[Nle]-pNA; configuration not given here)
- water solubility [1]: restricted water solubility

Structure (SMILES): CC(C)[C@H](NC(=O)CNC(=O)OC(C)(C)C)C(=O)N[C@@H](CCCNC(=N)N)C(=O)Nc1ccc([N+](=O)[O-])cc1.Cl [Boc-Gly-Val-Arg-pNA.HCl] (Boc-Gly-Val-Arg-pNA)
- Factor Xa kcat [5]: 3.51 s⁻¹
- Factor Xa kcat /Km [5]: 1310 M/s
- Km [5]: 2680 µM
- Km [7]: 244 µM
- kcat [7]: 11.2 s⁻¹
- kcat /Km [7]: 45900 M/s
- Km [9]: 244 µM
- Thrombin kcat [9]: 11.2 s⁻¹
- Thrombin kcat /Km [9]: 45900 M/s
- Km [10]: 959 µM
- kcat [10]: 1.90 s⁻¹
- kcat /Km [10]: 1980 M/s

Structure (SMILES): COC(=O)CC(=O)N1CCC[C@H]1C(=O)N[C@@H](CCCNC(=N)N)C(=O)Nc1ccc([N+](=O)[O-])cc1 [CH3 O--CO--CH2 --CO-L-Pro-L-Arg-pNA]
- rate of hydrolysis for protein C [3]: 0.83
- rate of hydrolysis for Factor Xa [4]: 0.14
- rate of hydrolysis for thrombin [6]: 0.68
- rate of hydrolysis for plasmin [8]: 0.230

Structure (SMILES): CC(=O)NCC(=O)N[C@H](C(=O)N[C@@H](CCCNC(=N)N)C(=O)CCl)C(C)C [Ac-Gly-Val-Arg-CH2 Cl] (Ac-Gly-Val-Arg-CH2Cl)
- ki value, times lower than that for D-Phe-Pro-Arg-CH2 Cl [11]: 3×10^4

Structure (SMILES): COC(=O)CC(=O)NC(C)(C)C(=O)N[C@@H](CCCNC(=N)N)C(=O)Nc1ccc([N+](=O)[O-])cc1.Cl [MZ-Aib-Arg-pNA.HCl, malonyl-α-aminoisobutyryl-arginine p-nitroanilide methyl ester monohydrochloride]
- rate of hydrolysis for protein C [3]: 0.03
- Km [12]: 830 µM
- kcat [12]: 0.46 s⁻¹
- kcat /Km [12]: 554 M/s
- rate of hydrolysis for Factor Xa [4]: 0.01
- rate of hydrolysis for thrombin [6]: 0.04
- Km [13]: 3940 µM
- kcat [13]: 2.9 s⁻¹
- kcat /Km [13]: 738 M/s
- Factor Xa kcat [14]: 2.9 s⁻¹
- Factor Xa kcat /Km [14]: 738 M/s
- Km [14]: 3940 µM
- rate of hydrolysis for plasmin [8]: 0.02
- Km [15]: 830 µM
- Thrombin kcat [15]: 0.46 s⁻¹
- Thrombin kcat /Km [15]: 554 M/s
